Data taken from US10697024B2, “Methods of determining IMiDS resistance in plasma cell disorders” (The Charlotte Mecklenburg Hospital Authority, priority 2016, dated 2020).

Test system: CD138-purified plasma cells
Assay: GEP-based pharmacogenomics of paired plasma cells prior to and 48 hours after an IMiD test dose
Assay type: in vivo, human
Conditions: MM patients, bone marrow plasma cells, 48 hr after test dose vs. baseline, SAM analysis; Affymetrix U95Av2 (thalidomide 400 mg/d, lenalidomide 25 to 50 mg/d) or U133Plus2.0 (pomalidomide 4 mg/d)
Protocol: GEP-based pharmacogenomics of paired CD138-purified plasma cells, obtained from patients prior to and 48 hours after administration of test doses of Thal (42 newly diagnosed MM), Len (18 relapsed/refractory MM), or Pom (18 relapsed/refractory MM) were compared using significance analysis of microarrays (SAM).
Plasma cell purifications and GEP, using the Affymetrix U133 Plus 2.0 microarray, were performed as previously described (Ref: Zhan F, Huang Y, Colla S, et al. The molecular classification of multiple myeloma. Blood. 2006; 108:2020-2028.). Samples were hybridized to Affymetrix expression arrays. Affymetrix U133Plus2.0 arrays were used in the pomalidomide study and Affymetrix U95Av2 arrays were used for thalidomide and lenalidomide pharmacogenomics studies. Bone marrow samples from MM patients enrolled in pharmacogenomics study were obtained prior to, and 48 hours after administration of a test dose of thalidomide (n=42 newly diagnosed), lenalidomide (n=18 relapsed/refractory) or pomalidomide (n=18 relapsed refractory). Plasma cell isolation from mononuclear cell fraction was performed by immunomagnetic bead selection with monoclonal anti-human CD138 antibody using the AutoMACS automated separation system (Miltenyi-Biotec) as previously described. Isolated bone marrow plasma cells were processed and analyzed for Gene-expression profiling (GEP) according to previously reported methods. Samples were hybridized to an Affymetrix U133Plus2.0 microarray for pomalidomide study and to an Affymetrix U95Av2 microarray for thalidomide and lenalidomide studies according to the manufacturer's recommendations and then read on GeneChip Scanner 3000 (Affymetrix). The data files were deposited in the ArrayExpress archive under the accession number E-TABM-1138. […]

Row | SMILES | Probe sets changed (p < 0.05) after 48 hr of IMiD treatment
1 | O=C1CCC(N2C(=O)c3ccccc3C2=O)C(=O)N1 (stereo not drawn) [Thalidomide, thalidomide] | 1398
2 | Nc1cccc2c1CN(C1CCC(=O)NC1=O)C2=O (stereo not drawn) [Lenalidomide, lenalidomide] | 1304
3 | Nc1cccc2c1C(=O)N(C1CCC(=O)NC1=O)C2=O (stereo not drawn) [Pomalidomide, pomalidomide] | 4944
